Assay results reported in patent publication US9605163B2, “Aminoalcohol compounds and their use as zero or low VOC additives for paints and coatings” (ANGUS CHEMICAL COMPANY, priority 2011, dated 2017).
Values belong to the compound of their own block, whether it stands above or below them.

Experiments:
[1] = Freeze-thaw cycles of paint samples, Krebs Stormer viscosity; conditions: for Initial Viscosity (KU): paint of Table 5, additive post-added at 2 wt %, before freeze-thaw
Experimental: The paint formulations are prepared using F/T agent 1 as shown by structures below. The octanol water partition coefficient is calculated using the method of Moriguchi et al., Chem. Pharm. Bull. 40(1), 127-130 (1992). The calculated octanol-water partition coefficient for F/T-1 is 0.69. […] Paint samples are frozen at −18° C. for 17 hours and then thawed at 25° C. for 7 hours. This constitutes 1 complete freeze-thaw cycle. Viscosities are measured after each freeze-thaw cycle using a Krebs Stormer Viscometer from Sheen at room temperature. The viscosity is measured in Krebs unit (KU). The results of freeze-thaw cycles on paint samples that contain a zero-VOC compound of the invention as a post-add are listed in the Table 6. The post-add compound is mixed at 2 wt % in the paint samples. The same paint formulation is used in preparing all the samples. The paint sample without any post-add is designated as “Blank.”
The KU values below 150 as reported in Table 9 are considered acceptable, and all the values (other than that for the Blank) reported are considered very acceptable.

[2] = VOC according to ASTM D6886-rev gas chromatography method; type: physicochemical; conditions: for Percent VOC measured on the crude amine sample: ASTM D6886-rev, value attributed to impurities / residual amine; for VOC classification according to ASTM D6886-rev protocol: pure compound
Experimental: “Zero or low VOC compound” and like terms mean that a particular aminoalcohol compound of the invention passes the criteria set forth by one or more gas chromatography methods, such as ASTM D6886-rev method, ISO 11890 or GB 18581. ASTM D6886-rev method is preferred.
VOC. VOC properties are tested according to the ASTM D6886-rev method.

[3] = pKa determination by titration with H2SO4 in water; type: physicochemical; conditions: 0.5 N H2SO4, water as solvent
Experimental: pKa. pKa values are determined by titration using 0.5 NH2SO4 as titrant with water as solvent. Duplicate analyses are performed.

[4] = additive 2 wt %, cycle = −18° C. 17 hours, 25° C. 7 hours

SMILES: CC(C)(C)CC(C)(C)N(CC(O)CO)CC(O)CO (stereo not shown) [3,3′-((2,4,4-trimethylpentan-2-yl)azanediyl)bis(propane-1,2-diol)]
Percent VOC measured on the crude amine sample [2]: 3.6% | VOC classification according to ASTM D6886-rev protocol [2]: zero VOC | pKa [3]: 9

SMILES: OCCOCCO [Diethylene Glycol, diethylene glycol, reference compound]
Viscosity after Freeze-Thaw cycles (KU), 5th cycle [1, 4]: 98 KU | Initial Viscosity (KU) [1]: 91.0 KU

SMILES: CCC(O)CN(CC(O)CC)C(C)(C)CO (stereo not shown) [AMP-2BO, 1,1′-((1-hydroxy-2-methylpropan-2-yl)azanediyl)bis(butan-2-ol)]
pKa [3]: 9.1

SMILES: OCCN(CCO)C1CCCCC1O (stereo not shown) [DEA-CyHO, 2,2′-((2-hydroxycyclohexyl)azanediyl)diethanol]
pKa [3]: 8.6

Continued, in another order:

Viscosity after Freeze-Thaw cycles (KU), 1st cycle [1, 4]: 92.6 KU | Viscosity after Freeze-Thaw cycles (KU), 2nd cycle [1, 4]: 100.8 KU | Viscosity after Freeze-Thaw cycles (KU), 3rd cycle [1, 4]: 103.1 KU | Viscosity after Freeze-Thaw cycles (KU), 4th cycle [1, 4]: 104.2 KU | Viscosity after Freeze-Thaw cycles (KU), 5th cycle [1, 4]: 105.3 KU | Initial Viscosity (KU) [1]: 85.2 KU
SMILES: CC(C)(C)CC(C)(C)N(CC(O)CO)CC(O)CO (stereo not shown) [F/T Agent 1]
Freeze-thaw survival of paint samples ([1]; additive as post-add): survive five freeze-thaw cycles

pKa [3]: 8.7
SMILES: CCC(O)CNC(CC)(CO)CO (stereo not shown) [AEPD-1BO, 2-ethyl-2-((2-hydroxybutyl)amino)propane-1,3-diol]

pKa [3]: 8
SMILES: CC(O)CNC(CO)(CO)CO (stereo not shown) [TA-1PO, 2-(hydroxymethyl)-2-((2-hydroxypropyl)amino)propane-1,3-diol]

Percent VOC measured on the crude amine sample [2]: 8.7% | VOC classification according to ASTM D6886-rev protocol [2]: zero VOC | pKa [3]: 7.8
SMILES: CC(C)OCC(O)CNC(CO)(CO)CO (stereo not shown) [TA-IPM, 2-((2-hydroxy-3-isopropoxypropyl)amino)-2-(hydroxymethyl)propane-1,3-diol]
